Experimental data taken from patent publication US6583132B1, “Oxidant scavengers” (Duke University, priority 1993, dated 2003).

Experiments:
[1] = test system: Calf pulmonary endothelial cell (CPA-47) line; experiment: Glucose oxidase hydrogen peroxide injury of CPA-47, Cr^51 release; assay type: cell-based; conditions: glucose oxidase 100 Mu/ml, 4 hours; 1 hour pretreatment
Protocol: (§1) Calf pulmonary endothelial cell (CPA-47) line was grown to near confluence in 12-well plates with F-12K medium containing 10% fetal calf serum. CPA-47 cells were loaded with Cr^51 as previously described by Simon et al J. Clin. Invest. 78:1375 (1986) in high glucose minimum essential medium (DMEM). Cells were pretreated with MnTBAP (100 μM) for 1 hour and then exposed to various concentrations of hydrogen peroxide generator, glucose oxidase, for 4 hours. Cell injury was then quantitated as the specific Cr^51 release from CPA-47 cells which has been adjusted for spontaneous Cr51 release.
as §1, with “(J.” for “J.”, “(1986))” for “(1986)”, “various concentrations of either: (A) MnTBAP; (B) MnTMPyP; (C) ZnTBAP; or (D) CuZnSOD” for “MnTBAP (100 μM)”, “the” for “various concentrations of”, “oxidase (100 Mu/ml),” for “oxidase,”, “Cr^51” for “Cr51”

[2] = test system: calf pulmonary artery endothelial cell cultures (CPA-47); experiment: Paraquat-induced injury of CPA-47 cells, LDH release; assay type: cell-based; conditions: varying concentrations; Paraquat 2 mM, 24 hours
Protocol: Calf pulmonary artery endothelial cell cultures (CPA-47) were grown to confluence in Ham's F-12K medium with 10% fetal bovine serum at pH 7.4 and 37° C. Cells were then trypsinized and seeded at equal densities in 24 well plates and grown to 90% confluence. Cells were washed and pre-incubated for 1 hour with varying concentrations of ZnTBAP in MEM or MEM only. Paraquat (2 mM) was added and allowed to incubate for 24 hours. Cell injury was quantitated by measuring the release of cellular lactate dehydrogenase (LDH) into the medium.

[3] = SOD activity (McCord and Fridovich); assay type: biochemical
Protocol: SOD activity can be monitored in the presence and absence of EDTA using the method of McCord and Fridovich (J. Biol. Chem. 244:6049 (1969)). The efficacy of a mimetic can be determined by measuring the effect of the mimetic on the growth of a SOD null E. coli strain versus a wild type strain. Specifically, wild type E. coli (AB1157) and SOD null E. coli. (JI132) can be grown in M9 medium containing 0.2% casamino acids and 0.2% glucose at pH 7.0 and 37° C.; growth can be monitored in terms of turbidity followed at 700 nm spectrophotometrically. Active mimetics can be tested for toxicity in mammalian cell culture by measuring lactate dehydrogenase (LDH) release. Specifically, rat L2 cells (a lung Type II like cell; (Kaighn and Douglas, J. Cell Biol. 59:106a (1973)) can be grown in Ham's F-12 medium with 10% fetal calf serum supplement at pH 7.4 and 37° C.; cells can be seeded at equal densities in 24 well culture dishes and grown to approximately 90% confluence; SOD mimetics can be added to the cells at log doses (eg micromolar doses in minimal essential medium (MEM)) and incubated for 24 hours. Toxicity can be assessed by morphology and by measuring the release of the cytosolic injury marker, LDH (eg on a thermokinetic plate reader), as described by Vassault (In: Methods of Enzymatic Analysis, Bergmeyer (ed) pp. 118-26 (1983); oxidation of NADH is measured at 340 nm). Efficacy of active mimetics can be assessed by determining their ability to protect mammalian cells against methylviologen (paraquat)-induced toxicity. Specifically, rat L2 cells grown as described above and seeded into 24 well dishes can be pre-incubated with various concentrations of the SOD mimetic and then incubated with a concentration of methylviologen previously shown to produce an LC75 in control L2 cells. Efficacy of the mimetic can be correlated with a decrease in the methylviologen-induced LDH release (St. Clair et al, FEBS Lett. 293:199 (1991)). The efficacy of SOD mimetics can be tested in vivo with mouse and/or rat models using both aerosol administration and parenteral injection. For example, male Balb/c mice can be randomized into 4 groups of 8 mice each to form a standard 2×2 contingency statistical model. Animals can be treated with either paraquat (40 mg/kg, ip) or saline and treated with SOD mimetic or vehicle control. Lung injury can be assessed 48 hours after paraquat treatment by analysis of bronchoalveolar lavage fluid (BALF) damage parameters (LDH, protein and % PMN) as previously described (Hampson et al, Tox. Appl. Pharm. 98:206 (1989); Day et al, J. Pharm. Methods 24:1 (1990)). […]
^2SOD activity determined as described by McCord and Fridovich, J. Biol. Chem. […] (1969).

[4] = target: T1, EC-SOD (Mus musculus, UniProt O09164); experiment: Brain EC-SOD activity after diethyldithiocarbamate; assay type: in vivo; conditions: transgenic and nontransgenic mice, sacrificed one hour later
T1 construct: The brains were removed and assayed for EC-SOD and CuZn SOD activity as described above; from tissue; host or cells: mouse brain; EC-SOD separated from the homogenate on concanavalin A sepharose
T1 sequence (O09164 25-251): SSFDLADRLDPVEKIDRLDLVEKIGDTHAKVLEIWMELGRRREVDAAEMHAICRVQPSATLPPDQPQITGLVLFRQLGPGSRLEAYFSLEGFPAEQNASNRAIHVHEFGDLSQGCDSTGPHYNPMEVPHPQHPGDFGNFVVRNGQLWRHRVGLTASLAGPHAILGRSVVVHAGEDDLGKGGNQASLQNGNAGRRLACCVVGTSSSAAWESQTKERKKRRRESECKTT
Protocol: (§2) Separation of SOD isoenzymes by concanavalin A sepharose chromatography: Tissues taken from 3 mice were weighed, then combined and homogenized in 10 volumes of ice-cold 50 mM potassium phosphate, pH 7.4, with 0.3 M. KBr, 3 mM diethylenetriaminepentaacetic acid, and 0.5 mM phenylmethylsulfonyl fluoride. Separation of EC-SOD from CuZn SOD and Mn SOD was accomplished by passing tissue homogenates over a concanavalin A sepharose column as described (Marklund et al, Clin. Chim. Acta 126:4 (1982)). SOD activity: EC-SOD activity and total SOD activity (CuZn SOD and Mn SOD) remaining after EC-SOD extraction were measured by inhibition of cytochrome C reduction at pH 10, as previously described (Crapo et al, Methods Enzymol. 53:382 (1978)). Total protein was determined by the BCA protein assay (Pierce, Rockford, Ill.). The SOD activities were then expressed as units/mg total protein. To determine the extent of EC-SOD and CuZn SOD inhibition by diethyldithiocarbamate, mice were given diethyldithiocarbamate and sacrificed one hour later. The brains were removed and assayed for EC-SOD and CuZn SOD activity as described above.

[5] = target: T2, CuZn SOD (Mus musculus, UniProt P08228); experiment: Brain CuZn SOD activity after diethyldithiocarbamate; assay type: in vivo; conditions: transgenic and nontransgenic mice, sacrificed one hour later
T2 construct: from tissue; host or cells: mouse brain; homogenate fraction left after removal of EC-SOD on concanavalin A sepharose
T2 sequence (P08228 whole entry): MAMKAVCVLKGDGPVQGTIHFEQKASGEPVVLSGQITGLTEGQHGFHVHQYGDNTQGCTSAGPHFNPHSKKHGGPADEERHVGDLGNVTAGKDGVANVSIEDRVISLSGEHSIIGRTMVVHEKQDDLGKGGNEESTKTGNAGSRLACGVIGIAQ
Protocol: as §2

[6] = CNS oxygen toxicity, 6 ATA hyperbaric oxygen exposure; assay type: in vivo, mice; conditions: 6 ATA oxygen 25 minutes, DDC 400 mg/kg i.p. or LNNA 20 mg/kg i.p.
Protocol: Oxygen exposures: 7-8 week old mice were exposed to hyperbaric oxygen five at a time in a small-animal chamber (Bethlehem, Pa.). After flushing the chamber with pure oxygen, compression to 50 meters (6 ATA) was performed within 5 minutes. The oxygen concentration in the chamber was monitored continuously with a Servomex oxygen analyzer (model 572, Sybron, Norwood, Mass.) and maintained at ≳99%. The carbon dioxide concentration was analyzed from intermittent samples of chamber gas with an IR detector (IR Industries, Santa Barbara, Calif.) and was not allowed to rise above 0.1%. The chamber temperature was maintained at 25-26° C., but the compression of oxygen in the chamber raised the temperature to 30-32° C. transiently, but an environmental control system restored the normal chamber temperature within 3 minutes. […] The mice were observed continuously for signs of oxygen toxicity from the beginning of the exposure until 4 hours after removal from the chamber. The time to the first generalized convulsion (seizure latency) and the time to death were recorded. These exposure conditions are designed to cause CNS oxygen toxicity without appreciable evidence of pulmonary oxygen toxicity.
Treatment with diethyldithiocarbamate: One hour prior to exposure to 6 ATA oxygen, mice were given either i.p. injections of either 0.008 cc/g saline or 400 mg/kg diethyldithiocarbamate dissolves in normal saline (0.008 cc/g). The mice were then exposed to 6 ATA oxygen for 25 minutes as described above.
Treatment with β-mercaptoethanol: One hour prior to exposure to 6 ATA oxygen, mice were given either i.p. injections of 0.008 cc/g saline or 180 mg/kg β-mercaptoethanol (0.008 cc/g). This dose of β-mercaptoethanol was selected because it contains an equal number of reducing thiols as the dose of diethyldithiocarbamate. The mice were then exposed to 6 ATA oxygen for 30 minutes as described above.
Treatment with N-ω-nitro-L-arginine, an inhibitor of nitric oxide synthase: Ten minutes prior to beginning compression, 0.008 cc/g saline or 20 mg/kg (0.008 cc/g) N-ω-nitro-L-arginine dissolved in sterile water was given i.p to the transgenic and nontransgenic mice. Mice were then exposed at 6 ATA oxygen for 25 or 75 minutes as described above.

SMILES	hydrogen peroxide-induced endothelial cell injury [1]	paraquat-induced LDH release / injury [2]	SOD activity, fold less than MnTBAP [3] [fold]	inhibition at 400 mg/kg [4] [%]	inhibition at 400 mg/kg [5] [%]	Survival ([6]; nontransgenic mice) [%]	Survival ([6]; transgenic mice) [%]
O=C(O)c1ccc(-c2c3nc(c(-c4ccc(C(=O)O)cc4)c4ccc([n-]4)c(-c4ccc(C(=O)O)cc4)c4nc(c(-c5ccc(C(=O)O)cc5)c5ccc2[n-]5)C=C4)C=C3)cc1.[Zn+2] [ZnTBAP, reference compound]	does not reduce	does not protect against paraquat-induced injury	10	–	–	–	–
CCN(CC)C(=S)S [diethyldithiocarbamate]	–	–	–	80	60	93	100
